Results on 19 compounds are retold here after patent publication EP0395312B1, “Piperazine derivatives” (JOHN WYETH & BROTHER LIMITED, priority 1989, dated 1990).

The target of experiment [1] is T1, 5-HT1A receptor (Rattus norvegicus, UniProt P19327).
T1 construct: rat hippocampal membrane homogenate; from tissue; host or cells: rat hippocampus membrane homogenate
T1 sequence (P19327 1-422): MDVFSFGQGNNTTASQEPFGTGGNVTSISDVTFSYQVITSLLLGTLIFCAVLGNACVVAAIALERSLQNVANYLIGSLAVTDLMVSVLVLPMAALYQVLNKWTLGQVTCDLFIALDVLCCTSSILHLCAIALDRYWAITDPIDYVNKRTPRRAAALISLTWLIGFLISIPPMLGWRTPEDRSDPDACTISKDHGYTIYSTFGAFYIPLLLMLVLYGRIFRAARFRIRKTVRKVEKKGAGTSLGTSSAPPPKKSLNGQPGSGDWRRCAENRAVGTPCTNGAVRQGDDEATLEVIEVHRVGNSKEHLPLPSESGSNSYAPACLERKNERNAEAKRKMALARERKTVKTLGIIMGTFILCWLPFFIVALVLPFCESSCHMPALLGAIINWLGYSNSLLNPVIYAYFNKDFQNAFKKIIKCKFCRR
Nature of the experiment: 5-HT1A receptor binding activity in rat hippocampal membrane homogenate. How it is done:
The compounds of the invention were tested for 5-HT1A receptor binding activity in rat hippocampal membrane homogenate by the method of B S Alexander and M D Wood, J Pharm Pharmarol, 1988, 40, 888-891.

Experiment [2] addresses T2, 5-HT1A receptor (Cavia porcellus, UniProt A0A286Y074).
T2 construct: in the guine-pig ileum in in vitro; from tissue; host or cells: guinea-pig isolated ileum
T2 sequence (A0A286Y074 1-421): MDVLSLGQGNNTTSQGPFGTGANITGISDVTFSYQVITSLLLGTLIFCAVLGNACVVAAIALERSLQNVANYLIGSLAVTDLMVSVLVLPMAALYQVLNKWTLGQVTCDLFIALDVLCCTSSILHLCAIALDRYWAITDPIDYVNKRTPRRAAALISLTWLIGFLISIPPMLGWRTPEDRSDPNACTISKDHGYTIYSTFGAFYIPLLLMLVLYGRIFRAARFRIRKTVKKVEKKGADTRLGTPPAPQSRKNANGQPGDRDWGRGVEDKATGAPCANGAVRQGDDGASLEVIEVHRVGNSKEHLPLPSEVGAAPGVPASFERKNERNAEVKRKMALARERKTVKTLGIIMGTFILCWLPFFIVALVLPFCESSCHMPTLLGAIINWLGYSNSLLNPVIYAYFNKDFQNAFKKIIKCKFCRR
Nature of the experiment: 5-HT1A receptor antagonism: antagonism of 5-carboxamidotryptamine in isolated ileum in vitro. Also noted: species or system guine-pig. As to conditions: guinea-pig ileum in vitro, read-out: pA2 (converted).
Protocol: The compounds are tested for 5-HT1A receptor antagonism activity in a test involving the antagonism of 5-carboxamidotryptamine in the guine-pig ileum in in vitro (based upon the procedure of Fozard et al, Br J Pharmac 1985, 86, 601P).

Another experiment has as its target D2 receptor sites (Homo sapiens, UniProt P14416). Nature of the experiment: Affinity for D2 receptor sites (procedure of Hancock et al). The experiment is classed as binding. As to conditions: read-out: Affinity for D2 site IC50.
A further experiment deals with α1 sites. Nature of the experiment: Affinity for α1 sites (procedure of Morrow et al). The experiment is classed as binding. The conditions noted are these: read-out: Affinity for α1 site IC50.
The mark [3] stands for this setting: 5-HT1A receptor binding, rat hippocampal membrane homogenate, read-out: IC50.

Like-named read-outs stand apart in the source and are kept apart here. Where only a bound is given, the exact number is not on record here.

Chain of D2 receptor sites (P14416 whole entry): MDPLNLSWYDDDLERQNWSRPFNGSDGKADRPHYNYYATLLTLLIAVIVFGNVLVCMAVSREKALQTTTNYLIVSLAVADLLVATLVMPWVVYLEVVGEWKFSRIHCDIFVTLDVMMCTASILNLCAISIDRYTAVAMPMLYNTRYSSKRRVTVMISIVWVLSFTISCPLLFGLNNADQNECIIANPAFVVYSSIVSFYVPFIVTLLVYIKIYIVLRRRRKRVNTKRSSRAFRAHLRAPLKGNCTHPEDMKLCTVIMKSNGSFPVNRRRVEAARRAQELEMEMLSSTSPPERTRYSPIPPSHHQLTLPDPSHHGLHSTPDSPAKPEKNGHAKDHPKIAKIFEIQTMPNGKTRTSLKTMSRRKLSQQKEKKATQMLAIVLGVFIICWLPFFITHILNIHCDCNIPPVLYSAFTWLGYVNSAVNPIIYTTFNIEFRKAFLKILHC

The term IC50 denotes the concentration that gives 50% inhibition. As to `COc1ccccc1N1CCN(CC(C(=O)Nc2ccccc2)c2ccccc2)CC1` (stereo not shown) [Example 6, 3-{1-[4-(2-Methoxyphenyl)piperazinyl]}-2-phenyl-N-phenylpropanamide], the half-maximal inhibitory concentration (IC50) on 5-HT1A receptor [1] (setting [3]) turned out to be 0.127 µM.

On to `CNC(=O)C(CN1CCN(c2ccccc2OC)CC1)c1ccccc1` (stereo not shown) [Example 8, methylamide], for which the IC50 on 5-HT1A receptor [1] (setting [3]) came to 0.045 µM.

With `COc1ccccc1N1CCN(CC(C(=O)NC2CCCCC2)c2ccccc2)CC1` (stereo not shown) [Example 19], the IC50 on 5-HT1A receptor [1] (setting [3]) came out at 0.024 µM; on D2 receptor sites it was 6.29 µM. Moreover, on 5-HT1A receptor [2], the Kb is 0.126 µM.

For the compound `COc1ccccc1N1CCN(CC(C(=O)NCCN2C(=O)CC3(CCCC3)CC2=O)c2ccccc2)CC1` (stereo not drawn) [Example 21, 8-{α-{1-[4-(2-methoxyphenyl)piperazinyl]methyl}phenylacetamidoethyl}-8-azaspiro[4.5]deca-7,9-dione], the IC50 at 5-HT1A receptor [1] (setting [3]) amounted to 0.049 µM; with α1 sites it was 1.2 µM. Further, the Kb on 5-HT1A receptor [2] was 0.126 µM.

For `COc1ccccc1N1CCN(CC(C(=O)N(C)C)c2ccccc2)CC1` (stereo not shown) [Example 22, N,N-Dimethyl-3-{1-[4-(2-methoxyphenyl)piperazinyl]}-2-phenylpropanamide], the IC50 on 5-HT1A receptor [1] (setting [3]) worked out at 0.045 µM; with α1 sites it was 1.23 µM.

`COc1ccccc1N1CCN(CC(C(=O)NCc2ccccc2)c2ccccc2)CC1` (stereo not shown) [Example 23, 3-{1-[4-(2-Methoxyphenyl)piperazinyl]}-2-phenyl-N-(phenylmethyl)propanamide]: at 5-HT1A receptor [1] (setting [3]), the concentration for half-maximal inhibition (IC50) was 0.059 µM. The Kb at 5-HT1A receptor [2] is 0.1 µM.

On to `O=C(NC1CCCCC1)C(CN1CCN(c2ncccn2)CC1)c1ccccc1` (stereo not shown) [Example 24, N-Cyclohexyl-2-phenyl-3-{1-[4-(2-pyrimidinyl)piperazinyl]}propanamide], for which the IC50 was 0.075 µM at 5-HT1A receptor [1] (setting [3]) and greater than 10 µM in the experiment with α1 sites.

Consider `COc1ccccc1N1CCN(CC(C(=O)OCC(C)C)c2ccccc2)CC1` (stereo not shown) [Example 26, 2-Methylpropyl 3-{1-[4-(2-methoxyphenyl)piperazinyl]}-2-phenylpropanoate], for which the IC50 came to 0.046 µM on 5-HT1A receptor [1] (setting [3]) and 1.09 µM in the experiment on α1 sites. Besides, the Kb on 5-HT1A receptor [2] was 0.158 µM.

For the compound `CCOC(=O)C(Cc1ccccc1)CN1CCN(c2ccccc2OC)CC1` (stereo not shown) [Example 29, Ethyl 2-{1-[4-(2-methoxyphenyl)piperazinyl]methyl}-3-phenylpropanoate], on 5-HT1A receptor [1] (setting [3]), the IC50 was 0.025 µM.

Turning to `COc1ccccc1N1CCN(CC(C(=O)NC2CC2)c2ccccc2)CC1` (stereo not shown) [Example 31, cyclopropyl-amide], the IC50 on 5-HT1A receptor [1] (setting [3]) was 0.028 µM. The Kb on 5-HT1A receptor [2] was 0.0398 µM.

In the case of `COc1ccccc1N1CCN(CC(C(=O)N2CCCC2)c2ccccc2)CC1` (stereo not shown) [Example 32, 1-{3-{1-[4-(2-methoxyphenyl)piperazinyl]}-2-phenylpropionyl}pyrrolidine], the IC50 is 0.021 µM at 5-HT1A receptor [1] (setting [3]), greater than 10 µM at D2 receptor sites and 0.851 µM in the experiment with α1 sites. For the same compound, at 5-HT1A receptor [2], the Kb was 0.158 µM.

As for `COc1ccccc1N1CCN(CC(C(=O)N2CCCCC2)c2ccccc2)CC1` (stereo not shown) [Example 33, 1-{3-{1-[4-(2-methoxyphenyl)piperazinyl]}-2-phenylpropionyl}piperidine], the IC50 at 5-HT1A receptor [1] (setting [3]) was 0.008 µM.

With `COc1ccccc1N1CCN(CC(C(=O)N2CCCCCC2)c2ccccc2)CC1` (stereo not shown) [Example 34, 2,3,4,5,6,7-hexahydro-1-{3-{1-[4-(2-methoxyphenyl)piperazinyl]}-2-phenylpropionyl}-1H-azepine], the IC50 on 5-HT1A receptor [1] came to 0.009 µM.

On to `COc1ccccc1N1CCN(CC(C(=O)NC2CCCCCCC2)c2ccccc2)CC1` (stereo not shown) [Example 35], for which the IC50 at 5-HT1A receptor [1] (setting [3]) was 0.0165 µM.

Turning to `COc1ccccc1N1CCN(C[C@@H](NC(=O)C2CCCCC2)c2ccccc2)CC1` [Example 37, (S)-N-[2-[1-[4-(2-Methoxyphenyl)piperazinyl]]-1-phenylethyl]cyclohexanecarboxylic acid amide], the IC50 came out at 0.045 µM on 5-HT1A receptor [1] (setting [3]) and 7.31 µM in the experiment on α1 sites. Further, the Kb on 5-HT1A receptor [2] was 0.0251 µM.

As for `COc1ccccc1N1CCN(CC(OC(=O)Nc2ccccc2)c2ccccc2)CC1` (stereo not shown) [Example 39, O-[2-[1-[4-(2-Methoxyphenyl)piperazinyl]]-1-phenylethyl]-N-phenylcarbamate], the half-maximal inhibitory concentration (IC50) at 5-HT1A receptor [1] (setting [3]) was determined as 0.022 µM.

As to `COc1ccccc1N1CCN(CC(OC(=O)C2CCCCC2)c2ccccc2)CC1` (stereo not shown) [Example 40, 2-{1-[4-(2-Methoxyphenyl)piperazinyl]}-1-phenylethyl cyclohexanecarboxylate], the IC50 at 5-HT1A receptor [1] (setting [3]) is 0.078 µM.

`CCOC(=O)N[C@H](CN1CCN(c2ccccc2OC)CC1)c1ccccc1` [Example 41, Ethyl(S)-N-[2-[1-[4-(2-methoxyphenyl)piperazinyl]]-1-phenylethyl]carbamate]: the concentration for half-maximal inhibition (IC50) at 5-HT1A receptor [1] (setting [3]) is 0.088 µM; with α1 sites, 2.85 µM.

For `COC(=O)C(CN1CCN(c2ccccc2OC)CC1)c1ccccc1` (stereo not shown) [Example 42, Methyl 3-[1-[4-(2-methoxyphenyl)piperazinyl]]-2-phenylpropionate], the IC50 amounted to 0.037 µM on 5-HT1A receptor [1] (setting [3]) and 0.988 µM with α1 sites. The Kb on 5-HT1A receptor [2] is 0.126 µM.
